Literature values in US20060099251A1, “Formulations of finasteride” (priority 2002, published 2006).

Q: With `CC(C)(C)NC(=O)[C@H]1CCC2[C@@H]3CCC4NC(=O)C=C[C@]4(C)C3CC[C@@]21C` (stereo partly drawn) [Finasteride, 17β-(N-tert-butylcarbamoyl)-4-aza-5α-androst-1-en-3-one] as the compound, how does the solubility in water read?
A: practically insoluble
